Laboratory results reported in patent publication US6787518B1, “Therapeutics of osteoarthritis and inflammatory joint disease” (priority 1995, dated 2004).

Legend:
chondrocytes [1] = assay: Growth of chondrocytes cultured in a centrifugal tube (DNA content); assay type: cell-based, rabbit; details: 10^−7 M added on 8th day, up to 28 days; 10^−10 to 10^−7 M, 21st day; FIG. 3, 4
From the text: In the following Examples, grown chondrocytes were separated from the subchondral bone to bone transition area of rabbits 4 weeks old from birth by the method of Shimomura et al. (Shimomura, Y. et al., Calcif. Tissue Res. 19, 179-187, 1975). The separated chondrocytes were cultivated by the method of Iwamoto et al. (Iwamoto, M. et al. Dev. Biol. 136 500-507, 1989) and the method of Kato et al. (Kato, Y. et al. Endocrinology, 127, 114-118, 1990). Stated specifically, the separated chondrocytes were suspended in an Eagle's minimum essential medium (MEM) to give a concentration of 8×10^4 cells/mL in the presence of 10% fetal bovine serum (FBS) and 50 μg/mL of ascorbic acid and then seeded in 1-mL portions into 15-mL plastic centrifugal tubes (Corning). After 5-min centrifugation (at 1,500 rpm), the cells were cultivated in a CO2 gas incubator having a temperature setting of 37° C. Starting on the 6th day of the cultivation, medium changes were made every other day. […]
As in Example 1, chondrocytes were cultured in a centrifugal tube. […] After the cultivation, the cells were solubilized at appropriate intervals and the time-dependent changes in DNA content were measured. In another experiment, PTHrP was added at varying concentrations from 10^−10 to 10^−7 M and the DNA content on the 21st day of the cultivation was measured.

chondrocytes [2] = assay: Alkaline phosphatase (ALP) activity of chondrocytes cultured in a centrifugal tube; assay type: cell-based, rabbit
From the text: (§1) In the following Examples, grown chondrocytes were separated from the subchondral bone to bone transition area of rabbits 4 weeks old from birth by the method of Shimomura et al. (Shimomura, Y. et al., Calcif. Tissue Res. 19, 179-187, 1975). The separated chondrocytes were cultivated by the method of Iwamoto et al. (Iwamoto, M. et al. Dev. Biol. 136 500-507, 1989) and the method of Kato et al. (Kato, Y. et al. Endocrinology, 127, 114-118, 1990). Stated specifically, the separated chondrocytes were suspended in an Eagle's minimum essential medium (MEM) to give a concentration of 8×10^4 cells/mL in the presence of 10% fetal bovine serum (FBS) and 50 μg/mL of ascorbic acid and then seeded in 1-mL portions into 15-mL plastic centrifugal tubes (Corning). After 5-min centrifugation (at 1,500 rpm), the cells were cultivated in a CO2 gas incubator having a temperature setting of 37° C. Starting on the 6th day of the cultivation, medium changes were made every other day. The presence of PTHrP receptors in the chondrocytes was verified by SDS gel electrophoresis. Stated specifically, the chondrocytes cultured for 14 days were homogenized and incubated with ^125I labelled PTHrP for 5 h. The PTHrP binding to the receptors was crosslinked with DSS, solubilized with a SDS buffer solution and electrophoresed through a SDS gel. After the electrophoresis, autoradiography was performed in the usual manner. As a control, excess PTHrP, was added to prevent the binding of ^125I labelled PTHrP to the receptors and the unbound PTHrP was electrophoresed by the same procedure and subjected to autoradiography.
As in Example 1, chondrocytes were cultured in a centrifugal tube. On the 8th day of the cultivation, 10^−7 M of PTHrP was added and the cultivation was continued for a period of up to 28 days. On the 21st day of the cultivation, a PTHrP free group was set and compared with the PTHrP treated group. In another experiment, PTHrP was added in varying amounts from […] and the dose-response relationship with the alkaline phosphatase activity (ALP activity) was verified. For the measurement of ALP activity, chondrocyte clusters were homogenized in 0.2% Triton X-100, centrifuged at 12,000 xg for 15 min and the supernatant was assayed by the method of Bessey et al. (Bessey O. A. et al., J. Biol. Chem. 164, 321-329, 1946). To investigate the progress of calcification, 0.5 μCi of ^45Ca was added at suitable intervals and its incorporation into the chondrocytes after 24 h, as well as the Ca level on the 28th day of the cultivation were measured.

chondrocytes [3] = assay: Calcification of chondrocytes (45Ca incorporation, Ca level) in centrifugal tube culture; assay type: cell-based, rabbit
From the text: as §1
As in Example 1, chondrocytes were cultured in a centrifugal tube. On the 8th day of the cultivation, 10^−7 M of PTHrP was added and the cultivation was continued for a period of up to 28 days. […] To investigate the progress of calcification, 0.5 μCi of ^45Ca was added at suitable intervals and its incorporation into the chondrocytes after 24 h, as well as the Ca level on the 28th day of the cultivation were measured.

PTHrP receptors = biological target: T1, PTHrP receptors (Oryctolagus cuniculus, UniProt G1T397); assay: Binding of 125I labelled PTHrP to receptors in chondrocyte homogenate (DSS crosslinking, SDS gel electrophoresis, autoradiography); design: species or system rabbit; details: addition of excess PTHrP; chondrocytes cultured 14 days, homogenized; FIG. 1
T1 construct: the chondrocytes cultured for 14 days were homogenized and incubated with ^125I labelled PTHrP for 5 h; endogenous in cells; host or cells: primary rabbit growth-plate chondrocytes, 14-day pellet culture, homogenized
T1 sequence (G1T397 29-589): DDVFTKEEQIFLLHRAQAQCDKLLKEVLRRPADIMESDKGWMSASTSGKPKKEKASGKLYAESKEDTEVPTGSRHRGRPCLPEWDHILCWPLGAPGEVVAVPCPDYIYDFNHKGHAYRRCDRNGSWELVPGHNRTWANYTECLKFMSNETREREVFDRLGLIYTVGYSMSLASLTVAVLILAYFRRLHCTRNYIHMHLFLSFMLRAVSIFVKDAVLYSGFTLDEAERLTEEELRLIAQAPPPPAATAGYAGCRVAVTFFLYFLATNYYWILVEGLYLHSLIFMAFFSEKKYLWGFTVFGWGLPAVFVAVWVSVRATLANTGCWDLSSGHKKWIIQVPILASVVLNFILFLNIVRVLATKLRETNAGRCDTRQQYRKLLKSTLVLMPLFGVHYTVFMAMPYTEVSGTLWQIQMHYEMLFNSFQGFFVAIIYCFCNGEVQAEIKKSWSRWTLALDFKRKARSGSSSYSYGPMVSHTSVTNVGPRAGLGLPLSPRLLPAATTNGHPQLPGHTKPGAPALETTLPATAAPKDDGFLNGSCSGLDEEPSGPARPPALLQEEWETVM
From the text: as §1, with “After the electrophoresis, autoradiography was performed in the usual manner. As a control, excess PTHrP, was added to prevent the binding of ^125I labelled PTHrP to the receptors and the unbound PTHrP was electrophoresed by the same procedure and subjected to autoradiography.” left out

grown chondrocytes = assay: Cartilage matrix proteoglycan synthesis (incorporation of labelled sulfuric acid) in cultured chondrocytes; assay type: cell-based, rabbit; details: FIG. 2
Experimental: As in Example 1, grown chondrocytes were separated from the subchondral bone to bone transition area of rabbits 4 weeks old from birth by the method of Shimomura et al. (Shimomura, Y. et al., Calcif. Tissue Res. 19, 179-187, 1975). The separated chondrocytes were suspended in an Eagle's minimum essential medium (MEM) containing 10% fetal bovine serum and 50 μg/mL of ascorbic acid and seeded in a 96-well culture plate at a concentration of 5,000 cells in each well. When the cells became confluent, PTHrP was added and, one day later, 1 μCi of […] was added per well, followed by 17-h cultivation. The amount of cartilage matrix produced in the supernatant of the culture solution was measured by the method of Kato et al. (Kato, Y. et al., Endocrinology 122, 1991-1997, 1988). Briefly, the quantity of […] incorporated into proteoglycans was measured.

mRNA of type X collagen = assay: Expression of mRNA of type X collagen in cultured chondrocytes (hybridization with 32P cDNA probe); assay type: cell-based, rabbit; details: 10^−8 and 10^−7 M PTHrP, last 6 days of 30-day cultivation; FIG. 9
Experimental: (§2) As in Example 1, grown chondrocytes were separated from the subchondral bone to bone transition area of rabbits 4 weeks old from birth by the method of Shimomura et al. (Shimomura, Y. et a., Calcif. Tissue Res. 19, 179-187, 1975). The separated chondrocytes were suspended in an Eagle's minimum essential medium (MEM) containing 10% fetal bovine serum and 50 μg/mL of ascorbic acid and seeded on a 3.5-cm Petri dish coated with type I collagen, each well containing 5,000 cells. Following 30-day cultivation, 10^−8 and 10^−7 M of PTHrP was brought into action for the last 6 days. RNA was prepared from the cultured cells by the CsTFA method (Smale and Sasse, Anal. Biochem. 203, 352-356. 1992), separated by electrophoresis and thereafter transferred onto a membrane. The membrane onto which the RNA had been transferred was hybridized with a ^32P labelled cDNA probe for type X and II collagens.

mRNA of type II collagen = assay: Expression of mRNA of type II collagen in cultured chondrocytes (hybridization with 32P cDNA probe); assay type: cell-based, rabbit; details: 10^−8 or 10^−7 M PTHrP, last 6 days of 30-day cultivation; FIG. 9
Experimental: as §2

ALP activity of the chondrocytes (chondrocytes [2]; 10^−7 M PTHrP added on 8th day, up to 28 days, PTHrP Treated Group, FIG. 5): suppressed
ALP activity (chondrocytes [2]; 10^−8 M PTHrP, FIG. 6): suppressed almost completely
concentration at which PTHrP started to suppress the ALP activity (chondrocytes [2]; dose response, 21st day, FIG. 6): above 10^−9 M
binding of 125I labelled PTHrP to the receptors (PTHrP receptors): completely prevented
Substance: PTHrP: human 1-34PTHrP purchased from the Peptide Institute, Inc.; partial peptide of PTHrP, 34 amino acids from the N terminus
DNA content of the chondrocytes (chondrocytes [1]): not influenced at all
ALP activity after PTHrP was eliminated from the culture solution (chondrocytes [2]; PTHrP removed on 21st day of cultivation, PTHrP Free Group, FIG. 5): restored to the level of the control group
incorporation of 45Ca into the chondrocytes (chondrocytes [3]; 10^−7 M PTHrP, PTHrP Treated Group, FIG. 7): suppressed
effect on 45Ca incorporation when PTHrP was removed (chondrocytes [3]; PTHrP Free Group, FIG. 7): soon disappeared
calcification of chondrocytes (chondrocytes [3]; concentrations higher than 10^−8 M PTHrP, FIG. 8): completely suppressed
matrix synthesizing capability relative to control (incorporation of 35S-sulfuric acid into proteoglycans) (grown chondrocytes; 10^−6 M PTHrP): about 3 times
incorporation of 35S-sulfuric acid into proteoglycans (grown chondrocytes; 10^−10 to 10^−6 M PTHrP, dose response): accelerated the incorporation of ^35S-sulfuric acid into proteoglycans in a dose-dependent manner
expression of the mRNA of type X collagen (mRNA of type X collagen): significantly inhibited
expression of the mRNA of type II collagen (mRNA of type II collagen): no effects
